Patent US12453709B2, “Compositions and methods for treating autism” (priority 2013, dated 2025)
Marks after values point to notes of the source that are not given here.

Tested on: male patients diagnosed with autism
Assay: Study HT 02-121: adverse events
Format: in vivo, human
Method: The purpose of this clinical study (referred to herein as “Study HT 02-121”; i.e., Example 6) was to determine whether L1-79 was a well-tolerated and clinically useful agent for the treatment of ASD, and to assess the PK and pharmacodynamics (PD) of four weeks of TID dosing with L1-79. […] The first cohort of 20 patients was comprised of three groups of patients: The first group of five patients received open-label L1-79 100 mg TID and underwent PK and EKG assessments. […] The PK and safety data from the open-label L1-79 100 mg TID group was submitted to FDA for review and acceptance before the second cohort was enrolled. The second cohort was procedurally identical to the first. The second cohort of 20 patients was comprised of the same three groups of patients but a dose of 200 mg TID was used instead of 100 mg TID. The key inclusion criteria were as follows: […] Safety was the primary endpoint of the study. The following safety endpoints were assessed: ECGs, physical exams, laboratory evaluations (hematology, chemistry and urinalysis), vital signs, including orthostatic blood pressure, adverse events (AEs) and concomitant medications. The incidence of AEs by primary system organ class and preferred term is presented in Table 7, and a listing of the AEs reported during the study is presented in Table 8. All AEs were mild to moderate in intensity and self-limited.

[1] = patient 01-011, OL 200 mg TID, treatment emergent Y, resolved
[2] = patient 02-001, OL 100 mg TID, treatment emergent Y, resolved
[3] = patient 02-018, DB 200 mg TID, treatment emergent Y, resolved

CC(N)(Cc1ccc(O)cc1)C(=O)O (racemic) [L1-79, α-methyl-DL-tyrosine]
0[0] n(%): Incidence of AEs: Nasopharyngitis (OL 100 mg TID, N = 5) | Incidence of AEs: Nervous system disorders (OL 100 mg TID, N = 5) | Incidence of AEs: Otitis externa (OL 100 mg TID, N = 5) | Incidence of AEs: Pyrexia (OL 100 mg TID, N = 5) | Incidence of AEs: Renal and urinary disorders (OL 100 mg TID, N = 5) | Incidence of AEs: Respiratory, thoracic & mediastinal disorders (OL 100 mg TID, N = 5) | Incidence of AEs: Seasonal allergy (OL 100 mg TID, N = 5) | Incidence of AEs: Syncope (OL 100 mg TID, N = 5) | Incidence of AEs: Urinary incontinence (OL 100 mg TID, N = 5) | Incidence of AEs: Agitation (OL 200 mg TID, N = 6) | Incidence of AEs: Amylase † (OL 200 mg TID, N = 6) | Incidence of AEs: Anxiety (OL 200 mg TID, N = 6) | Incidence of AEs: Blood TSH † (OL 200 mg TID, N = 6) | Incidence of AEs: Confusional state (OL 200 mg TID, N = 6) | Incidence of AEs: Crystal urine present (OL 200 mg TID, N = 6) | Incidence of AEs: Diarrhoea (OL 200 mg TID, N = 6) | Incidence of AEs: Ear infection (OL 200 mg TID, N = 6) | Incidence of AEs: GI disorders (OL 200 mg TID, N = 6) | Incidence of AEs: Generalized tonic-clonic seizure (OL 200 mg TID, N = 6) | Incidence of AEs: Infections and infestations (OL 200 mg TID, N = 6) | Incidence of AEs: International self-injury (OL 200 mg TID, N = 6) | Incidence of AEs: Investigations (OL 200 mg TID, N = 6) | Incidence of AEs: Irritability (OL 200 mg TID, N = 6) | Incidence of AEs: Nasopharyngitis (OL 200 mg TID, N = 6) | Incidence of AEs: Nervous system disorders (OL 200 mg TID, N = 6) | Incidence of AEs: Otitis externa (OL 200 mg TID, N = 6) | Incidence of AEs: Psychiatric disorders (OL 200 mg TID, N = 6) | Incidence of AEs: Renal and urinary disorders (OL 200 mg TID, N = 6) | Incidence of AEs: Syncope (OL 200 mg TID, N = 6) | Incidence of AEs: Urinary incontinence (OL 200 mg TID, N = 6)
possibly related: AE Relationship: fatigue (tiredness) (patient 01-016, OL 200 mg TID) | AE Relationship: anxiety (anxious) (patient 02-001, OL 100 mg TID) | AE Relationship: confusional state (mental confusion) (patient 02-001, OL 100 mg TID) | AE Relationship: intentional self-injury (self injurious behavior) (patient 02-001, OL 100 mg TID) | AE Relationship: irritability (patient 02-001, OL 100 mg TID) | AE Relationship: anxiety (anxious mood) (patient 02-018, DB 200 mg TID) | AE Relationship: blood thyroid stimulating hormone increased (elevated TSH) (patient 02-018, DB 200 mg TID) | AE Relationship: diarrhoea (diarrhea) (patient 02-018, DB 200 mg TID) | AE Relationship: generalized tonic-clonic seizer (grand mal seizure) (patient 02-023, DB 200 mg TID)
2 [e]: Number of AE events: International self-injury (OL 100 mg TID, N = 5) | Number of AE events: Irritability (OL 100 mg TID, N = 5) | Number of AE events: General disorders & administration site conditions (OL 200 mg TID, N = 6)
mild: AE Severity: crystal urine present (urine cystine crystal present) (patient 01-014, DB 200 mg TID, reported at 4-week follow-up visit, resolved) | AE Severity: fatigue (tiredness) (patient 01-016, OL 200 mg TID, treatment emergent Y, resolved) | AE Severity: crystal urine present (urine cystine crystal present) (patient 01-018, DB 200 mg TID, reported at 4-week follow-up visit, resolved) | AE Severity: anxiety (anxious) [2] | AE Severity: confusional state (mental confusion) [2] | AE Severity: intentional self-injury (self injurious behavior) [2] | AE Severity: irritability [2] | AE Severity: irritability (patient 02-002, OL 100 mg TID, treatment emergent Y, outcome unknown) | AE Severity: intentional self-injury (violent episodes of self injurious behavior) (patient 02-002, OL 100 mg TID, treatment emergent Y, resolving) | AE Severity: synoope (synoope) (patient 02-009, DB 100 mg TID, treatment emergent Y, resolved) | AE Severity: anxiety (anxious mood) [3] | AE Severity: otitis externa [3] | AE Severity: ear infection (patient 02-024, DB 200 mg TID, AE reported pre-treatment, resolving) | AE Severity: diarrhoea (diarrhea) (patient 02-024, DB 200 mg TID, treatment emergent Y, resolved)
1(20.0) n(%): Incidence of AEs: Cough (OL 200 mg TID, N = 6) | Incidence of AEs: Fatigue (OL 200 mg TID, N = 6) | Incidence of AEs: Immune system disorders (OL 200 mg TID, N = 6) | Incidence of AEs: Pyrexia (OL 200 mg TID, N = 6) | Incidence of AEs: Respiratory, thoracic & mediastinal disorders (OL 200 mg TID, N = 6) | Incidence of AEs: Seasonal allergy (OL 200 mg TID, N = 6)
1 [e]: Number of AE events: Anxiety (OL 100 mg TID, N = 5) | Number of AE events: Confusional state (OL 100 mg TID, N = 5) | Number of AE events: Cough (OL 200 mg TID, N = 6) | Number of AE events: Fatigue (OL 200 mg TID, N = 6) | Number of AE events: Immune system disorders (OL 200 mg TID, N = 6) | Number of AE events: Pyrexia (OL 200 mg TID, N = 6) | Number of AE events: Respiratory, thoracic & mediastinal disorders (OL 200 mg TID, N = 6) | Number of AE events: Seasonal allergy (OL 200 mg TID, N = 6)
6 [e]: Number of AE events: All primary SOC (OL 100 mg TID, N = 5) | Number of AE events: Psychiatric disorders (OL 100 mg TID, N = 5)
moderate: AE Severity: cough [1] | AE Severity: pyrexia (fever) [1] | AE Severity: diarrhoea (diarrhea) (patient 01-016, DB 200 mg TID, treatment emergent Y, resolved) | AE Severity: seasonal allergy (patient 01-016, OL 200 mg TID, treatment emergent Y, not resolved) | AE Severity: blood thyroid stimulating hormone increased (elevated TSH) (patient 02-018, DB 200 mg TID, reported at 4-week follow-up visit, resolved) | AE Severity: diarrhoea (diarrhea) [3] | AE Severity: generalized tonic-clonic seizer (grand mal seizure) (patient 02-023, DB 200 mg TID, treatment emergent Y, resolved, discontinued Y)
probably related: AE Relationship: intentional self-injury (violent episodes of self injurious behavior) (patient 02-002, OL 100 mg TID) | AE Relationship: irritability (patient 02-002, OL 100 mg TID)
4 [e]: Number of AE events: All primary SOC (OL 200 mg TID, N = 6)
not related: AE Relationship: cough (patient 01-011, OL 200 mg TID) | AE Relationship: pyrexia (fever) (patient 01-011, OL 200 mg TID) | AE Relationship: crystal urine present (urine cystine crystal present) (patient 01-014, DB 200 mg TID) | AE Relationship: diarrhoea (diarrhea) (patient 01-016, DB 200 mg TID) | AE Relationship: seasonal allergy (patient 01-016, OL 200 mg TID) | AE Relationship: crystal urine present (urine cystine crystal present) (patient 01-018, DB 200 mg TID) | AE Relationship: synoope (synoope) (patient 02-009, DB 100 mg TID) | AE Relationship: otitis externa (patient 02-018, DB 200 mg TID) | AE Relationship: diarrhoea (diarrhea) (patient 02-024, DB 200 mg TID) | AE Relationship: ear infection (patient 02-024, DB 200 mg TID, AE reported pre-treatment)
2(40.0) n(%): Incidence of AEs: Psychiatric disorders (OL 100 mg TID, N = 5) | Incidence of AEs: All primary SOC (OL 200 mg TID, N = 6) | Incidence of AEs: General disorders & administration site conditions (OL 200 mg TID, N = 6)
